Measured values reported in patent US20260347338A1, “PYRIMIDINE/PYRIDINE DERIVATIVES OR SALTS THEREOF AND PHARMACEUTICAL COMPOSITIONS COMPRISING THE SAME” (YUHAN CORPORATION, priority 2023, published 2026).
Structures can show the parent of a compound that is named as a salt.

The molecules below were run against T1, human recombinant HPK1 (Homo sapiens, UniProt Q92918) (assay: Inhibitory activity against human recombinant HPK1 (TR-FRET)). Settings: ULight-p70S6K peptide, ATP at Km, room temperature, 1 hour, 0.32 to 1000 nM compound.
T1 construct: purchased BPS Bioscience
T1 sequence (Q92918 whole entry): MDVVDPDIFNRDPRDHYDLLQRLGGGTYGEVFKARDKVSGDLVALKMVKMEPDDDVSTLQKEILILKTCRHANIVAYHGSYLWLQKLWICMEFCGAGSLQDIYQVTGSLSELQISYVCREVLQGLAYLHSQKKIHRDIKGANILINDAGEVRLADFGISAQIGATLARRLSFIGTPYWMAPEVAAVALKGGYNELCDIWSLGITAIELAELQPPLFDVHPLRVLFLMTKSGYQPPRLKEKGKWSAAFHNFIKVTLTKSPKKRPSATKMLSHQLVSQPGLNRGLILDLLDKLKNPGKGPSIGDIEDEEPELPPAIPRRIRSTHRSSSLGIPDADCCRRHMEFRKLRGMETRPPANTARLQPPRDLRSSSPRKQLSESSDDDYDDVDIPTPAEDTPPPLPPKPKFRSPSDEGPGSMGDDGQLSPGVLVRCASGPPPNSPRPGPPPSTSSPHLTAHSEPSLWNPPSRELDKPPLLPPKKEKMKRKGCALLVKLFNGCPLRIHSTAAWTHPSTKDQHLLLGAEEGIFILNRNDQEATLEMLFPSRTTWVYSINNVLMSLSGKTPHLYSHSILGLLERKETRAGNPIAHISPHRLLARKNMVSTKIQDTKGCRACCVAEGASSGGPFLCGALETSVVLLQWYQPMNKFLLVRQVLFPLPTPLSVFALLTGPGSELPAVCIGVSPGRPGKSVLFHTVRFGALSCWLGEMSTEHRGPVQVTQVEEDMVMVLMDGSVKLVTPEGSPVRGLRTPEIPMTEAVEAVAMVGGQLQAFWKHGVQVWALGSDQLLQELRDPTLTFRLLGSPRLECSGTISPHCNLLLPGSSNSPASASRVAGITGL
Type: biochemical
Procedure, shortened: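 IC50 classes A–D use 10, 50 and 100 nM cut-offs, derived from TR-FRET signal inhibition relative to DMSO controls. Human recombinant HPK1 phosphorylated ULight-p70S6K peptide at Km ATP for 1 h, room temperature, pH 7.4; test range 0.32–1000 nM final, detection with Eu-labelled antibody after EDTA quench.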

Structure (SMILES) | IC50
COc1cccc(F)c1-c1nccc(N(CCN(C)C)c2cc(N3CCC[C@H](N)C3)c(-c3ccc(N)nc3)cn2)n1 [Example 240, (S)-4-(3-aminopiperidin-1-yl)-N^6-(2-(dimethylamino)ethyl)-N^6-(2-(2-fluoro-6-methoxyphenyl)pyrimidin-4-yl)-[3,3′-bipyridin]-6,6′-diamine hydrochloride] | ≤ 10 nM
COc1cccc(F)c1-c1nccc(Nc2cc(N3CCC[C@H](N)C3)c(-c3ccc(F)c(C(F)(F)F)c3)cn2)n1 [Example 293, (S)-N-(4-(3-aminopiperidin-1-yl)-5-(4-fluoro-3-(trifluoromethyl)phenyl)pyridin-2-yl)-2-(2-fluoro-6-methoxyphenyl)pyrimidin-4-amine hydrochloride] | ≤ 10 nM
COc1cccc(F)c1-c1nccc(Nc2cc(N3CCC[C@H](N)C3)c(-c3ccc(NC(C)=O)cc3)cn2)n1 [Example 279, (S)-N-(4-(4-(3-aminopiperidin-1-yl)-6-((2-(2-fluoro-6-methoxyphenyl)pyrimidin-4-yl)amino)pyridin-3-yl)phenyl)acetamide hydrochloride] | ≤ 10 nM
COc1cc(F)cc(F)c1-c1nccc(Nc2cc(N3CCC[C@H](N)C3)c(C#CC(C)(C)O)cn2)n1 [Example 313, (S)-4-(4-(3-aminopiperidin-1-yl)-6-((2-(2,4-difluoro-6-methoxyphenyl)pyrimidin-4-yl)amino)pyridin-3-yl)-2-methylbut-3-yn-2-ol] | ≤ 10 nM
COc1cccc(F)c1-c1nc(Nc2cc(N3CCC[C@H](O)C3)c(C(=O)N[C@@H]3CC[C@@H](O)C3)cn2)ccc1N [Example 201, 6-((5-amino-6-(2-fluoro-6-methoxyphenyl)pyridin-2-yl)amino)-N-((1R,3R)-3-hydroxycyclopentyl)-4-((S)-3-hydroxypiperidin-1-yl)nicotinamide] | ≤ 10 nM
COc1cc(F)cc(F)c1-c1nc(Nc2cc(N3CCC[C@H](O)C3)c(CCC3CCOCC3)cn2)ccc1N [Example 228, (3S)-1-(2-((5-amino-6-(2,4-difluoro-6-methoxyphenyl)pyridin-2-yl)amino)-5-(2-(tetrahydro-2H-pyran-4-yl)ethyl)pyridin-4-yl)piperidin-3-ol] | 10 to 50 nM
COc1cccc(F)c1-c1nccc(Nc2cc(N3CCC[C@H](N)C3)c(-c3ccc(F)c(Cl)c3)cn2)n1 [Example 292, (S)-N-(4-(3-aminopiperidin-1-yl)-5-(3-chloro-4-fluorophenyl)pyridin-2-yl)-2-(2-fluoro-6-methoxyphenyl)pyrimidin-4-amine hydrochloride] | ≤ 10 nM
COc1cccc(F)c1-c1nc(Nc2cc(N3CCC[C@H](O)C3)c(C#Cc3cnn(C(F)F)c3)cn2)ccc1[N+](=O)[O-] [Example 222, (3S)-1-(5-((1-(difluoromethyl)-1H-pyrazol-4-yl)ethynyl)-2-((6-(2-fluoro-6-methoxyphenyl)-5-nitropyridin-2-yl)amino)pyridin-4-yl)piperidin-3-ol] | ≤ 10 nM
COc1cc(F)cc(F)c1-c1nccc(Nc2cc(N3CCC[C@H](N)C3)c(C#CC3(C)CCOCC3)cn2)n1 [Example 311, (S)-N-(4-(3-aminopiperidin-1-yl)-5-((4-methyltetrahydro-2H-pyran-4-yl)ethynyl)pyridin-2-yl)-2-(2,4-difluoro-6-methoxyphenyl)pyrimidin-4-amine] | ≤ 10 nM
COc1cc(F)cc(F)c1-c1nc(Nc2cc(N3CCC[C@H](O)C3)c(-c3cnn(CC(F)F)c3)cn2)ccc1N [Example 226, (3S)-1-(2-((5-amino-6-(2,4-difluoro-6-methoxyphenyl)pyridin-2-yl)amino)-5-(1-(2,2-difluoroethyl)-1H-pyrazol-4-yl)pyridin-4-yl)piperidin-3-ol] | ≤ 10 nM
COc1cc(F)cc(F)c1-c1nccc(Nc2cc(N3CCC[C@H](O)C3)c(C#Cc3cnn(C(F)(F)F)c3)cn2)n1 [Example 218, (S)-1-(2-((2-(2,4-difluoro-6-methoxyphenyl)pyrimidin-4-yl)amino)-5-((1-(trifluoromethyl)-1H-pyrazol-4-yl)ethynyl)pyridin-4-yl)piperidin-3-ol] | ≤ 10 nM

Continued, values first:

IC50 | Structure (SMILES)
≤ 10 nM | COc1cccc(F)c1-c1nc(Nc2cc(N3CCC[C@H](O)C3)c(-c3cnn(C(F)F)c3)cn2)ccc1N [Example 150, (3S)-1-(2-((5-amino-6-(2-fluoro-6-methoxyphenyl)pyridin-2-yl)amino)-5-(1-(difluoromethyl)-1H-pyrazol-4-yl)pyridin-4-yl)piperidin-3-ol]
≤ 10 nM | COc1cccc(F)c1-c1nccc(Nc2cc(N3CC[C@@H](N)[C@@H](F)C3)c(-c3cnn(C(F)F)c3)cn2)n1 [Example 308, N-(4-((3S,4R)-4-amino-3-fluoropiperidin-1-yl)-5-(1-(difluoromethyl)-1H-pyrazol-4-yl)pyridin-2-yl)-2-(2-fluoro-6-methoxyphenyl)pyrimidin-4-amine hydrochloride]
≤ 10 nM | COc1cccc(F)c1-c1nccc(Nc2cc(N3CCC[C@H](O)C3)c(-c3cnn(C4CCOC4)c3)cn2)n1 (stereo partly drawn) [Example 14, (3S)-1-(2-((2-(2-fluoro-6-methoxyphenyl)pyrimidin-4-yl)amino)-5-(1-(tetrahydrofuran-3-yl)-1H-pyrazol-4-yl)pyridin-4-yl)piperidin-3-ol]
≤ 10 nM | COc1cccc(F)c1-c1nccc(Nc2cc(N3CCC[C@H](N)C3)c(-c3cnn(CC(F)(F)F)c3)cn2)n1 [Example 78, (S)-N-(4-(3-aminopiperidin-1-yl)-5-(1-(2,2,2-trifluoroethyl)-1H-pyrazol-4-yl)pyridin-2-yl)-2-(2-fluoro-6-methoxyphenyl)pyrimidin-4-amine hydrochloride]
50 to 100 nM | COc1cccc(F)c1-c1nccc(Nc2cc(N3CCCC(NC(C)=O)C3)c(-c3cnn(C4CCOCC4)c3)cn2)n1 (stereo not drawn) [Example 86, N-(1-(2-((2-(2-fluoro-6-methoxyphenyl)pyrimidin-4-yl)amino)-5-(1-(tetrahydro-2H-pyran-4-yl)-1H-pyrazol-4-yl)pyridin-4-yl)piperidin-3-yl)acetamide]
≤ 10 nM | COc1cccc(F)c1-c1nccc(Nc2cc(N3CCC(CCN(C)C)CC3)c(-c3cnn(C4CCOCC4)c3)cn2)n1 [Example 64, N-(4-(4-(2-(dimethylamino)ethyl)piperidin-1-yl)-5-(1-(tetrahydro-2H-pyran-4-yl)-1H-pyrazol-4-yl)pyridin-2-yl)-2-(2-fluoro-6-methoxyphenyl)pyrimidin-4-amine]
10 to 50 nM | COc1cccc(F)c1-c1nccc(Nc2cc(N3CCC[C@H](O)C3)c(-c3ccc(CN4CCOCC4)nc3)cn2)n1 [Example 32, (S)-1-(6-((2-(2-fluoro-6-methoxyphenyl)pyrimidin-4-yl)amino)-6′-(morpholinomethyl)-[3,3′-bipyridin]-4-yl)piperidin-3-ol]
≤ 10 nM | COc1cc(CO)cc(F)c1-c1nccc(Nc2cc(N3CCC[C@H](N)C3)c(-c3cnn(CC(F)(F)F)c3)cn2)n1 [Example 102, (S)-(4-(4-((4-(3-aminopiperidin-1-yl)-5-(1-(2,2,2-trifluoroethyl)-1H-pyrazol-4-yl)pyridin-2-yl)amino)pyrimidin-2-yl)-3-fluoro-5-methoxyphenyl)methanol hydrochloride]
≤ 10 nM | COc1cccc(F)c1-c1nc(Nc2cc(N3CCC[C@H](O)C3)c(-c3cnn(CC(F)F)c3)cn2)ccc1N [Example 179, (3S)-1-(2-((5-amino-6-(2-fluoro-6-methoxyphenyl)pyridin-2-yl)amino)-5-(1-(2,2-difluoroethyl)-1H-pyrazol-4-yl)pyridin-4-yl)piperidin-3-ol]
≤ 10 nM | COc1cccc(F)c1-c1nc(Nc2cc(N3CCC[C@H](N)C3)c(-c3ccc(N4CCOCC4)nc3)cn2)ccc1C#N [Example 323, 6-((4-((S)-3-aminopiperidin-1-yl)-6′-morpholino-[3,3′-bipyridin]-6-yl)amino)-2-(2-fluoro-6-methoxyphenyl)nicotinonitrile hydrochloride]
≤ 10 nM | COc1cccc(F)c1-c1nccc(Nc2cc(N3CCC[C@@H](N)C3)c(-c3cnn(C4CCOCC4)c3)cn2)n1 [Example 53, (R)-N-(4-(3-aminopiperidin-1-yl)-5-(1-(tetrahydro-2H-pyran-4-yl)-1H-pyrazol-4-yl)pyridin-2-yl)-2-(2-fluoro-6-methoxyphenyl)pyrimidin-4-amine]
≤ 10 nM | O[C@H]1CCCN(c2cc(Nc3ccnc(-c4c(F)cccc4F)n3)ncc2-c2cnn(C3CCOCC3)c2)C1 [Example 22, (S)-1-(2-((2-(2,6-difluorophenyl)pyrimidin-4-yl)amino)-5-(1-(tetrahydro-2H-pyran-4-yl)-1H-pyrazol-4-yl)pyridin-4-yl)piperidin-3-ol]
≤ 10 nM | COc1cccc(F)c1-c1nccc(Nc2cc(N3CCC[C@H](N)C3)c(-c3cnc(C4CCN(C)CC4)s3)cn2)n1 [Example 98, (S)-N-(4-(3-aminopiperidin-1-yl)-5-(2-(1-methylpiperidin-4-yl)thiazol-5-yl)pyridin-2-yl)-2-(2-fluoro-6-methoxyphenyl)pyrimidin-4-amine hydrochloride]
≤ 10 nM | COc1cccc(F)c1-c1nccc(Nc2cc(N3CCC[C@H](N)C3)c(-c3cnc4c(c3)CCC(=O)N4)cn2)n1 [Example 276, (S)-6-(4-(3-aminopiperidin-1-yl)-6-((2-(2-fluoro-6-methoxyphenyl)pyrimidin-4-yl)amino)pyridin-3-yl)-3,4-dihydro-1,8-naphthyridin-2(1H)-one hydrochloride]
≤ 10 nM | COc1cccc(F)c1-c1nccc(Nc2cc(N3CCC[C@H](N)C3)c(-c3ccc(N4CCNCC4)nc3)cn2)n1 [Example 241, (S)-4-(3-aminopiperidin-1-yl)-N-(2-(2-fluoro-6-methoxyphenyl)pyrimidin-4-yl)-6′-(piperazin-1-yl)-[3,3′-bipyridin]-6-amine hydrochloride]
10 to 50 nM | O[C@H]1CCCN(c2cc(Nc3ccnc(-c4cnn5ccccc45)n3)ncc2-c2cnn(C3CCOCC3)c2)C1 [Example 27, (S)-1-(2-((2-(pyrazolo[1,5-a]pyridin-3-yl)pyrimidin-4-yl)amino)-5-(1-(tetrahydro-2H-pyran-4-yl)-1H-pyrazol-4-yl)pyridin-4-yl)piperidin-3-ol]
